Our source for the MIC values is ChEMBL document CHEMBL1649459, “Analysis of cell membrane characteristics of in vitro-selected daptomycin-resistant strains of methicillin-resistant Staphylococcus aureus” (2009).

Assay type in all cases: functional
The subject of test [1] is Staphylococcus aureus. In words: Antimicrobial activity against methicillin-resistant Staphylococcus aureus MW2 CB1118 by Etest method.
The test system of test [2] is Staphylococcus aureus. In words: Antimicrobial activity against methicillin-resistant Staphylococcus aureus MW2 CB2201 after 1-day passage containing sublethal concentration of compound by Etest method. The note with it: MW2 CB2201, 24 h.
Test [3] concerns Staphylococcus aureus. In words: Antimicrobial activity against methicillin-resistant Staphylococcus aureus MW2 CB2202 harboring […] MprF T345I mutant after 5-day passage containing sublethal concentration of compound by Etest method. The following applies: MW2 CB2202, 120 h.
Test [4] has as its system Staphylococcus aureus. In words: Antimicrobial activity against methicillin-resistant Staphylococcus aureus MW2 CB2203 harboring […] MprF T345I, RpoB I953S mutant after 14-day passage containing sublethal concentration of compound by Etest method. The following applies: MW2 CB2203, 336 h.
In test [5] the test system is Staphylococcus aureus. In words: Antimicrobial activity against methicillin-resistant Staphylococcus aureus MW2 CB2205 harboring […] MprF T345I, RpoB I953S,YycG S221P mutant after 20-day passage containing sublethal concentration of compound by Etest method. The note with it: MW2 CB2205, 480 h.

In brackets after ≈: the same amount, converted by molar mass.

Take `CCCCCCCCCC(=O)N[C@@H](Cc1c[nH]c2ccccc12)C(=O)N[C@H](CC(N)=O)C(=O)N[C@@H](CC(=O)O)C(=O)N[C@@H]1C(=O)NCC(=O)N[C@@H](CCCN)C(=O)N[C@@H](CC(=O)O)C(=O)N[C@H](C)C(=O)N[C@@H](CC(=O)O)C(=O)NCC(=O)N[C@H](CO)C(=O)N[C@@H]([C@H](C)CC(=O)O)C(=O)N[C@@H](CC(=O)c2ccccc2N)C(=O)O[C@@H]1C`: the MIC came out at 1 µg/mL (≈ 0.617 µM) in test [1]; 1.5 µg/mL (≈ 0.926 µM) in test [2]; 3 µg/mL (≈ 1.85 µM) in test [3]; 6 µg/mL (≈ 3.7 µM) in test [4]; 12 µg/mL (≈ 7.4 µM) in test [5].

As usually defined, the MIC is the lowest concentration that inhibits growth of the organism. Read a high MIC as weaker potency.
